Tests used:
Format in all cases: in vivo, bottlenose dolphin (Tursiops truncatus)
[1] = Serum fatty acid form concentrations (complex lipidomics) in dolphins fed modified diet; conditions: case dolphins fed modified diet (n = 20)
Protocol: (§1) Determination of serum fatty acid concentrations, including a variety of fatty acid classes, were performed by Metabolon, Inc. (Durham, N.C.) using complex lipidomics. Lipids were extracted from samples using dichloromethane and methanol in a modified Bligh-Dyer extraction in the presence of internal standards with the lower, organic, phase being used for analysis. The extracts were concentrated under nitrogen and reconstituted in 0.25 mL of dichloromethane:methanol (50:50) containing 10 mM ammonium acetate. The extracts were placed in vials for infusion-MS analyses, performed on a SelexION equipped Sciex 5500 QTRAP using both positive and negative mode electrospray. Each sample was subjected to 2 analyses, with IMS-MS conditions optimized for lipid classes monitored in each analysis. The 5500 QTRAP was operated in MRM mode to monitor the transitions for over 1,100 lipids from up to 14 lipid classes. Individual lipid species were quantified based on the ratio of signal intensity for target compounds to the signal intensity for an assigned internal standard of known concentration. Lipid class concentrations were calculated from the sum of all molecular species within a class, and fatty acid compositions were determined by calculating the proportion of individual fatty acids within each class. […]

[2] = Total serum fatty acid concentrations in dolphins fed modified diet; conditions: for concentration at 0 month / concentration at 1 month / concentration at 3 month / concentration at 6 month: bottlenose dolphin (Tursiops truncatus), Case dolphins fed modified diet (n = 20); for concentration at 0 month: Month 0 (baseline), 2 h postprandial; for concentration at 1 month: Month 1, 2 h postprandial; for concentration at 3 month: Month 3, 2 h postprandial; for concentration at 6 month: Month 6, 2 h postprandial
Protocol: CV % were typically under 10%.
as §1

red blood cell indices = test: Stepwise and simple linear regression: serum fatty acids as predictors of red blood cell indices; conditions: Group A dolphins on the modified diet
Protocol: Fatty acids that were independent predictors of red blood cell indices were then tested for linear associations with red blood cell indices using simple linear regressions.

[3] = Serum total fatty acids (% of total fatty acids), MMP dolphins versus wild Sarasota Bay dolphins
Excerpt: Dolphins at the Navy Marine Mammal Program (MMP) are a well-studied dolphin population with regard to chronic diseases and diseases of aging, and this population is more susceptible to anemia (lower packed cell volume and lower hemoglobin) compared to wild dolphins living in Sarasota Bay, Fla. (Table 1). MMP dolphins also have lower total serum odd chain saturated fatty acids and lower very long even chain saturated fatty acids compared to Sarasota Bay dolphins (Table 1, See also Venn-Watson et al. (2016) Increased dietary intake of saturated fatty acid heptadecanoic acid (C17:0) associated with decreasing ferritin and alleviated metabolic syndrome in dolphins. […] Proposed risk factors for anemia in MMP dolphins can include advanced age, chronic disease, and diet (see Venn-Watson S, Smith C R, Gomez F, Jensen E D (2011) Physiology of aging among healthy, older bottlenose dolphins (Tursiops truncatus): comparisons with aging humans. J Comp Phys B 181:667-680). It can be hypothesized that differences in dietary fish (and differences in certain fatty acids associated with particular types of fish) can be responsible for the risk of anemia.

[4] = wild Sarasota Bay Dolphins (n = 19)

| SMILES | Serum concentrations of fatty acid forms ([1]; Month 0 (baseline)) [µM] | Serum concentrations of fatty acid forms ([1]; Month 1) [µM] | Serum concentrations of fatty acid forms ([1]; Month 3) [µM] | Serum concentrations of fatty acid forms ([1]; Month 6) [µM] | also measured |
| --- | --- | --- | --- | --- | --- |
| CCCCCCCCCCCCCC(=O)O[C@H]1CC[C@@]2(C)C(=CC[C@H]3[C@@H]4CC[C@H]([C@H](C)CCCC(C)C)[C@@]4(C)CC[C@@H]32)C1 [C14:0 CE] | 126 ± 32 | 86 ± 21 | 93 ± 20 | 92 ± 25 |  |
| CCCCCCCCCCCCCC(=O)O [C14:0, myristic acid] |  |  |  |  | concentration at 0 month ([2]; serum, oral): 243 ± 63 µM; concentration at 1 month ([2]; serum, oral): 195 ± 50 µM; concentration at 3 month ([2]; serum, oral): 226 ± 46 µM; concentration at 6 month ([2]; serum, oral): 206 ± 33 µM |
| CCCCCCCCCCCCCCC(=O)O [C15:0, pentadecanoic acid] |  |  |  |  | Serum fatty acid (%) ([3]; MMP Dolphins (n = 30)): 0.3 ± 0.1%; Serum fatty acid (%) [3, 4]: 1.1 ± 0.4%; concentration at 0 month ([2]; serum, oral): 35 ± 9 µM; concentration at 1 month ([2]; serum, oral): 94 ± 33 µM; concentration at 3 month ([2]; serum, oral): 111 ± 29 µM; concentration at 6 month ([2]; serum, oral): 101 ± 29 µM; Increased serum concentration as independent, linear predictor of red blood cell indices (red blood cell indices): independently predicted higher hematocrit, higher packed cell volume, higher hemoglobin, and higher red blood cell counts |
| CCCCCCCCCCCCCCCC(=O)O [C16:0, palmitic acid] |  |  |  |  | concentration at 0 month ([2]; in vivo): 1440 ± 194 µM; concentration at 1 month ([2]; in vivo): 1370 ± 199 µM; concentration at 3 month ([2]; in vivo): 1500 ± 221 µM; concentration at 6 month ([2]; in vivo): 1450 ± 155 µM; Change of total serum concentration versus Month 0 ([2]; in vivo): either did not change or decreased |
| CCCCCCCCCCCCCCCCC(=O)O[C@H]1CC[C@@]2(C)C(=CC[C@H]3[C@@H]4CC[C@H]([C@H](C)CCCC(C)C)[C@@]4(C)CC[C@@H]32)C1 [C17:0 CE] | 14 ± 4 | 18 ± 7 | 20 ± 8 | 21 ± 9 |  |
| CCCCCCCCCCCCCCCCC(=O)O [C17:0, heptadecanoic acid] |  |  |  |  | Serum fatty acid (%) ([3]; MMP Dolphins (n = 30)): 0.3 ± 0.1%; Serum fatty acid (%) [3, 4]: 1.3 ± 0.4%; concentration at 0 month ([2]; serum, oral): 51 ± 9 µM; concentration at 1 month ([2]; serum, oral): 82 ± 21 µM; concentration at 3 month ([2]; serum, oral): 93 ± 23 µM; concentration at 6 month ([2]; serum, oral): 85 ± 15 µM; Increased serum concentration as independent, linear predictor of red blood cell indices (red blood cell indices): independently predicted higher hematocrit, higher packed cell volume, higher hemoglobin, and higher red blood cell counts |
| CCCCCCCCCCCCCCCCCCCC(=O)O [C20:0 FFA] | 6.6 ± 2.5 | 4.4 ± 1.4 | 5.0 ± 2.3 | 17 ± 10 |  |
| CCCCCCCCCCCCCCCCCCCC(=O)O [C20:0] |  |  |  |  | Serum fatty acid (%) ([3]; MMP Dolphins (n = 30)): 0.9 ± 0.2%; Serum fatty acid (%) [3, 4]: 1.5 ± 0.3% |
| CCCCCCCCCCCCC/C=C/[C@@H](O)[C@H](CO)NC(=O)CCCCCCCCCCCCCCCCCCCCC [C22:0 CER] | 0.19 ± 0.04 | 0.23 ± 0.05 | 0.26 ± 0.07 | 0.25 ± 0.06 |  |
| CCCCCCCCCCCCCCCCCCCCCC(=O)O [C22:0, behenic acid] |  |  |  |  | Serum fatty acid (%) ([3]; MMP Dolphins (n = 30)): 0.2 ± 0.04%; Serum fatty acid (%) [3, 4]: 0.7 ± 0.2%; concentration at 0 month ([2]; in vivo): 23 ± 4 µM; concentration at 1 month ([2]; in vivo): 21 ± 3 µM; concentration at 3 month ([2]; in vivo): 23 ± 3 µM; concentration at 6 month ([2]; in vivo): 24 ± 5 µM |
| CCCCCCCCCCCCCCCCCCCCCCCC(=O)N[C@@H](CO)[C@H](O)CCCCCCCCCCCCCCC [C24:0 DCER] | 0.07 ± 0.02 | 0.11 ± 0.03 | 0.13 ± 0.05 | 0.12 ± 0.03 |  |
| CCCCCCCCCCCCCCCCCCCCCCCC(=O)O [C24:0] |  |  |  |  | Serum fatty acid (%) ([3]; MMP Dolphins (n = 30)): 0.1 ± 0.0%; Serum fatty acid (%) [3, 4]: 0.5 ± 0.1% |
| CCCCCCCCCCCCCCCCCCCCCCCCCC(=O)O [C26:0] |  |  |  |  | Change of total serum concentration versus Month 0 ([2]; in vivo): increased |

Second part, led by results:

| Serum concentrations of fatty acid forms ([1]; Month 0 (baseline)) [µM] | Serum concentrations of fatty acid forms ([1]; Month 1) [µM] | Serum concentrations of fatty acid forms ([1]; Month 3) [µM] | Serum concentrations of fatty acid forms ([1]; Month 6) [µM] | SMILES | also measured |
| --- | --- | --- | --- | --- | --- |
| 22 ± 5 | 61 ± 19 | 66 ± 17 | 64 ± 22 | CCCCCCCCCCCCCCC(=O)O[C@H]1CC[C@@]2(C)C(=CC[C@H]3[C@@H]4CC[C@H]([C@H](C)CCCC(C)C)[C@@]4(C)CC[C@@H]32)C1 [C15:0 CE] | Increased serum concentration as independent, linear predictor of red blood cell indices (red blood cell indices): independently predicted improved red blood cell indices |
| 3.8 ± 1.3 | 4.2 ± 1.5 | 3.6 ± 0.8 | 3.8 ± 1.3 | CCCCCCCCCCCCCCC(=O)O [C15:0 FFA] |  |
| 273 ± 50 | 226 ± 41 | 244 ± 33 | 245 ± 48 | CCCCCCCCCCCCCCCC(=O)O[C@H]1CC[C@@]2(C)C(=CC[C@H]3[C@@H]4CC[C@H]([C@H](C)CCCC(C)C)[C@@]4(C)CC[C@@H]32)C1 [C16:0 CE] |  |
| 0.50 ± 0.10 | 0.39 ± 0.08 | 0.42 ± 0.08 | 0.41 ± 0.07 | CCCCCCCCCCCCC/C=C/[C@@H](O)[C@H](CO)NC(=O)CCCCCCCCCCCCCCCCCCC [C20:0 CER] |  |
| 8.5 ± 2.4 | 5.7 ± 1.5 | 5.9 ± 1.5 | 6.3 ± 2.1 | CCCCCCCCCCCCCCCCCCCCCC(=O)O[C@H]1CC[C@@]2(C)C(=CC[C@H]3[C@@H]4CC[C@H]([C@H](C)CCCC(C)C)[C@@]4(C)CC[C@@H]32)C1 [C22:0 CE] |  |
